What was measured:
wheat immature embryos = assay: Killing curve: in vitro germination of immature embryos and seedling growth; type: in vivo, Triticum aestivum
Experimental: In order to establish effective concentrations of D-serine and D-alanine on inhibiting growth of tissue cultured wheat cells, a bioassay system using immature embryos was applied. Immature embryos 2 mm in length were dissected onto germination medium with the selection agents, and incubated at 27° C. in light. The number of germinated embryos with well-developed shoots and brunched shoots were scored after 14 days.
Immature embryos 2 mm in size were isolated from the sterilized caryopses. The embryos were cultured on PAW-5 hormone free medium for germination in dark. Seedlings growth on D-amino acid selection was observed after 2 weeks. Most of the embryos germinated but the seedlings growth was inhibited when roots emerge and the uptake of the selection compound was direct from the medium. The Lethal Dose (LD 100) for seedlings germination and growth was 1 mM concentration of both D-amino acids tested (Table 6). Seedlings derived from embryos isolated from the immature caryopsis without endosperms were susceptible to the selection in concentration higher than 1 mM (FIG. 8).

wheat in vitro shoots = assay: Killing curve: rooting of in vitro shoots; type: in vivo, Triticum aestivum
Description: […] The effect of selection agents was observed two and tree weeks later. Number of plantlets with growing roots and green leaves were scored.
In vitro regenerated shoots from media lacking the selection compounds were collected and transferred on medium for rooting (½ MS salts hormone free). Roots formation, growth of the shoots and leaves elongation was scored two and four weeks later after sub culturing of these shoots to the medium supplemented with D-amino acids (Table 5).

[1] = system: wheat variety Canon immature embryos / embryogenic callus; assay: Agrobacterium-mediated transformation with dao1 constructs and selection of transgenic plants; type: cell-based, Triticum aestivum; details: 5 mM selection
Experimental: Explants were washed with PAW-Inf. medium and immersed in the above-described bacterial suspension for 2 h at 26° C. At the end of infection the explants were placed with scutellum side up on PAW-1 medium. The residual bacterial suspension is removed by pipeting out and air-drying of the infected embryos by opening plates for 15 min on the sterile banch. Plates were sealed with Parafilm and placed in thermostat at 26° C. in the dark for 5-6 days co-cultivation.
After co-cultivation period the explants were washed with sterile water and 500 mg/L Cefotaxime and filter paper dried before being transferred to PAW-2 callus induction-recovery medium containing 160 mg/l Timentin for 14 days (7 days dark/7 days semi light; 13.2 μmol m^−2s^−1). Explants with embryogenic callus were subculture to PAW-2 callus-proliferation medium containing 160 mg/l Timentin and corresponding selection 5 mM D-serine or 5 mM D-alanine or 3 mg/l bialaphos. In some experiments the selection on D-amino acids was starting on PAW-2 callus induction medium 0, 7, 14 and 21 days after co cultivation. Embryogenic callus was subculture twice on fresh selective medium for callus maintaining and regeneration on PAW-4 medium with corresponding selection. Cultures were maintained at 23° C. on light 60.2 μmol m^−2s^−1. Regenerated shoots were subculture to PAW-5 hormone free medium with corresponding selection (5 mM D-serine or 5 mM D-alanine or 3 mg/l bialaphos) for further growth and rooting. All media used in the transformation experiments were filter sterilized and are listed in above. After analyses transgenic plants were transferred to soil and placed for further growth in greenhouse. 1.4 Molecular and expression studies of the transgenic plants
Freshly isolated immature embryos from Canon were inoculated with Agrobacterium. In all experiments Agrobacterium tumefactions super binary vector system based on LBA4404 (pSB1) was used. The constructs pRLM205 containing the original dao1 gene and pRLM226 carrying modified Daol. Both constructs contain gusINT reporter marker gene (FIGS. 3, I and II). Following co cultivation the explants were transferred on callus induction PAW-2 selection free medium containing 160 mg/l Timentin to inhibit bacterial growth for 14 days. For selection embryogenic callus was transferred to PAW-2 selection medium containing 5 mM D-serine or 5 mM D-alanine respectively. Furthermore calli were sub cultured to fresh corresponding selection PAW-2 medium for maintaining. Embryogenic calli were trans-ferred on PAW-4 selection medium for regeneration 5-6 weeks after transformation. The emerging plantlets were further grown and rooted on PAW-5 hormone free selection medium. Well-developed and rooted on selection putative transgenic regenerants were selected in vitro within. When D-alanine was used as selection compound similar effects in callus growth, shoots regeneration and rooting of transgenic plants or non transgenic escapes selected on D-serine was observed. Both selection agents resulted with 1.1% to 1.2% transformation efficiency and no escape rate (Table 9).

[2] = system: control seedlings (wheat); assay: Spraying of seedlings with D-serine; type: in vivo, Triticum aestivum; details: 5 days old control seedlings; 50-300 mM
Description: Unlike Arabidopsis (Ericson et al. 2004a), spraying of 5 days old control and trans-genic seedlings with D-serine was not efficient in wheat. […] Watering of the plants was also not sufficient. Since the uptake, mobility in soil and detoxification by microorganisms are all potential barriers for D-serine in the soil, the expectation of in soil selection seems bleak. Therefore, that the transgenic plants will use the products from detoxification of D-serine as an additional nitrogen supply was not fulfilled in soil.

Structure (SMILES): N[C@H](CO)C(=O)O [D-serine]
- In vitro germination, Immature Embryos (%) (wheat immature embryos; Bobwhite, 0.5 mM): 46%
- In vitro germination, Immature Embryos (%) (wheat immature embryos; Bobwhite, 1 mM): 0%
- In vitro germination, Immature Embryos (%) (wheat immature embryos; Bobwhite, 5 mM): 0%
- In vitro germination, Immature Embryos (%) (wheat immature embryos; Bobwhite, 10 mM): 0%
- In vitro germination, Immature Embryos (%) (wheat immature embryos; Canon, 0.5 mM): 34%
- In vitro germination, Immature Embryos (%) (wheat immature embryos; Canon, 1 mM): 0%
- In vitro germination, Immature Embryos (%) (wheat immature embryos; Canon, 5 mM): 0%
- In vitro germination, Immature Embryos (%) (wheat immature embryos; Canon, 10 mM): 0%
- root formation of non-transgenic shoots (wheat in vitro shoots; 5 mM): not able to form roots
- Rooted Shoots (%) (wheat in vitro shoots; Bobwhite, 1 mM): 64%
- Rooted Shoots (%) (wheat in vitro shoots; Bobwhite, 3 mM): 24%
- Rooted Shoots (%) (wheat in vitro shoots; Bobwhite, 5 mM): 3%
- Rooted Shoots (%) (wheat in vitro shoots; Bobwhite, 10 mM): 0%
- Rooted Shoots (%) (wheat in vitro shoots; Bobwhite, 15 mM): 0%
- Rooted Shoots (%) (wheat in vitro shoots; Bobwhite, 25 mM): 0%
- Rooted Shoots (%) (wheat in vitro shoots; Canon, 1 mM): 56%
- Rooted Shoots (%) (wheat in vitro shoots; Canon, 3 mM): 16%
- Rooted Shoots (%) (wheat in vitro shoots; Canon, 5 mM): 2%
- Rooted Shoots (%) (wheat in vitro shoots; Canon, 10 mM): 0%
- Rooted Shoots (%) (wheat in vitro shoots; Canon, 15 mM): 0%
- Rooted Shoots (%) (wheat in vitro shoots; Canon, 25 mM): 0%
- ER (%) Escape Rate ([1]; pRLM205 (dao1 original)): 0%
- TE (%) Transformation Efficiency ([1]; pRLM205 (dao1 original)): 1.1%
- ER (%) Escape Rate ([1]; pRLM226 (dao1/ko modified)): 0%
- TE (%) Transformation Efficiency ([1]; pRLM226 (dao1/ko modified)): 0.72%
- toxicity symptoms after spraying [2]: not sufficient to elicit toxicity symptoms
